Here are results for 22 molecules from patent US20190262453A1, “DESIGN AND COMPOSITION OF CELL-STABILIZED PHARMACEUTICAL FORMULATIONS” (THE REGENTS OF THE UNIVERSITY OF MICHIGAN, priority 2016, published 2019).

Values joined by “and” are separate entries in the source; they are usually repeats but may differ in a detail not shown here. Equal entries are not always repeated. Structures can show the parent of a compound that is named as a salt.

Test system in one series: not listed separately
The series is described as follows: pH-dependent solubility study of CFZ-HCl (Flynn approach). The series is classed as physicochemical. Conditions: dissolved in pure water. As for the experimental part: Solubility Measurement Using the Flynn Approach. […] Mili-Q water (15 mL) was added to each vial ensuring that CFZ-HCl crystals were in great excess. Moreover, an appropriate amount of 0.1 M NaOH was added to each vial to set the initial equilibration pH measurements as follows: […] The set of sample containing vials was placed on a magnetic stirrer plate in a 25° C. water bath. […] The pH of the filtered sample was determine by Denver Instrument UltraBasic pH meter (Denver Instrument, Bohemia, N.Y.), after which the sample was subjected to HPLC analysis (Waters Alliance, Separations Module 2695) to determine the total solubility of the drug at the measured pH. […] The retention time for CFZ was determined to be at 4.75 min. […] Thus, in order to fit the experimental solubility-pH data curve of CFZ-HC, it was determined which one of the aforementioned solubility-pH relationships (equation 8 vs. equation 9) to use. […] Then, a value, say “y”, from the list of the computed [CFZH^+] values was set equal [CFZH+]S. By substituting “y' in place of [CFZH+]S, total solubility at the different pH values was calculated using the solubility-pH equation where the intrinsic salt is the primary solid species (equation 15). […]
In the case of `CC(C)/N=c1\cc2n(-c3ccc(Cl)cc3)c3ccccc3nc-2cc1Nc1ccc(Cl)cc1` [CFZ-HCl, Clofazimine Hydrochloride], the “solubility versus unprotonated CFZ free base” value is “greater solubility”.

The same series, now with this note: from pH-solubility profile, 25° C.
On to `CC(C)/N=c1\cc2n(-c3ccc(Cl)cc3)c3ccccc3nc-2cc1Nc1ccc(Cl)cc1` [CFZ-HCl, Clofazimine Hydrochloride], for which the pHmax is on record as 4.5±7.11×10^−15.

In another series the test system is RAW264.7 cells. The series is described as follows: Cell viability (XTT assay). Format: cell-based.
Details: not given
As for the experimental part: Cell Viability. Viability of RAW264.7 cells were performed using Cell Proliferation Kit II (XTT) (Roche Applied Science, Mannheim, Germany, Cat. No. 11465015001) using the manufacturer's instructions. […] Post 24 hours exposure to CFZ, the cells were incubated with the yellow XTT solution (final concentration 0.3 mg/ml) for 4 h. […] An increase in number of living cells directly correlates to the amount of orange formazan formed, as monitored by the solution absorbance at 500 nm (Abs500). The following formula was used to determine viability of drug and inhibitor treated cells using untreated cells (blank) as a control—Cell Viability=(Abs500, treated—Abs700,treated)/(Abs500, blank—Abs700,blank).
(In general: Tetrazolium dyes change colour on reduction, which living cells bring about.)
As to `O=C(O)c1cc([N+](=O)[O-])ccc1NCCCc1ccccc1` [NPPB], the “effect on cell viability” value is “no significant effect”.

Staying with this series, now noted: BafA1 alone at 6 nM, n=6.
Take `CO/C1=C\C(C)=C\[C@@H](C)[C@@H](O)[C@@H](C)C/C(C)=C/C=C/[C@H](OC)[C@@H]([C@@H](C)[C@@H](O)[C@H](C)[C@@]2(O)C[C@@H](O)[C@H](C)[C@@H](C(C)C)O2)OC1=O` [BafA1, bafilomycin A1]: the cell viability (commonly the share of living cells, or the viability signal relative to a control) was 65±25%.

Staying with this series, now noted: BafA1 alone at 8 nM, n=6.
The molecule `CO/C1=C\C(C)=C\[C@@H](C)[C@@H](O)[C@@H](C)C/C(C)=C/C=C/[C@H](OC)[C@@H]([C@@H](C)[C@@H](O)[C@H](C)[C@@]2(O)C[C@@H](O)[C@H](C)[C@@H](C(C)C)O2)OC1=O` [BafA1, bafilomycin A1] came in with a cell viability of 33±6%.

Test system in a further series: not given
Test: not given
Conditions: in vivo; cited from earlier work.
In the case of `CCCCCN(C)CCC(O)(P(=O)(O)O)P(=O)(O)O` [Ibandronate], the Vd (usually a proportionality between amount in the body and measured concentration, not a real space) is 5.8 L/kg.

Consider `CCCCCc1cc(O)c2c(c1)OC(C)(C)[C@@H]1CCC(C)=C[C@@H]21` [Dronabinol], for which the Vd is 8.9 L/kg.

In the case of `c1cnc2cc3c(cc2n1)[C@@H]1CNC[C@H]3C1` [Varenicline], the Vd is 6.2 L/kg.

As to `CCOC(=O)C1(c2ccccc2)CCN(C)CC1` [Meperidine], the Vd is 4.4 L/kg.

In the case of `CC(=O)S[C@@H]1CC2=CC(=O)CC[C@]2(C)[C@H]2CC[C@@]3(C)[C@@H](CC[C@@]34CCC(=O)O4)[C@H]12` [Spironolactone], the Vd is 10 L/kg.

Turning to `CC[C@@H]([C@H](C)O)n1ncn(-c2ccc(N3CCN(c4ccc(OC[C@@H]5CO[C@@](Cn6cncn6)(c6ccc(F)cc6F)C5)cc4)CC3)cc2)c1=O` [Posaconazole], the Vd is 11.9 L/kg.

Regarding `Cc1ccc(-c2cc(C(F)(F)F)nn2-c2ccc(S(N)(=O)=O)cc2)cc1` [Celecoxib], the Vd was 6.12 L/kg.

For the molecule `O=C1CCc2ccc(OCCCCN3CCN(c4cccc(Cl)c4Cl)CC3)cc2N1` [Aripiprazole], the Vd was 4.9 L/kg.

As for `CN1CCN(C2=Nc3cc(Cl)ccc3Nc3ccccc32)CC1` [Clozapine], the Vd is 5.4 L/kg.

As to `CC1=C(/C=C/C(C)=C/C=C/C(C)=C\C(=O)O)C(C)(C)CCC1` [Isotretinoin], the Vd was 5 L/kg.

Turning to `CN(C)CCC(c1ccc(Cl)cc1)c1ccccn1` (stereo not drawn) [Chlorpheniramine], the Vd is 3.2 L/kg.

As to `CC(=O)[C@]1(O)Cc2c(O)c3c(c(O)c2[C@@H](O[C@H]2C[C@H](N)[C@H](O)[C@H](C)O2)C1)C(=O)c1ccccc1C3=O` [Idarubicin], the Vd is 24.7 L/kg.

For the molecule `OCCOCCN1CCN(C(c2ccccc2)c2ccc(Cl)cc2)CC1` (stereo not drawn) [Hydroxyzine], the Vd was 19 L/kg and 16 L/kg.

Take `Nc1nc(N)c2nc(-c3ccccc3)c(N)nc2n1` [Triameterene]: the volume of distribution (Vd) is 13.4 L/kg.

With `CC(NC(C)(C)C)C(=O)c1cccc(Cl)c1` (stereo not drawn) [Bupropion], the Vd is 18.6 L/kg.

Regarding `CC12CC3CC(C)(C1)CC(N)(C3)C2` [Memantine], the Vd was 10.9 L/kg.

For the molecule `O=C(C1CCCCC1)N1CC(=O)N2CCc3ccccc3C2C1` (stereo not drawn) [Praziquantel], the Vd is 9.55 L/kg.

For `CCCN(CCC)CCc1cccc2c1CC(=O)N2` [Ropinirole], the Vd was 7.5 L/kg.

For the molecule `CNCCC=C1c2ccccc2CCc2ccccc21` [Nortriptyline], the Vd is 18 L/kg.
